Assay results published in PubChem BioAssay AID248 (DTP/NCI, 2004).
Values joined by “and” are separate entries in the source; they are usually repeats but may differ in a detail not shown here. Identical values can stand only once. Toxic doses and inconclusive results are not listed. No stated cut-off is given here; in the data, active means T/C of 150% or more; inactive means T/C below 125%.

Test system: L1210 leukemia ip in BDF1 mice, survival T/C
Experiment: NCI In Vivo Anticancer Drug Screen. Data for tumor model L1210 Leukemia (intraperitoneal) in B6D2F1 (BDF1) mice
Conditions: endpoint: mean survival time, higher = longer survival
How it was run: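 Tumor was transplanted into mice, which were then dosed with test compound or vehicle alone. Survival was recorded for each group, and the treated figure was expressed relative to the control figure.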

[1] = dose: 25.0 mg/kg/injection, schedule: Q04DX002 (ip), vehicle: saline
[2] = dose: 50.0 mg/kg/injection, schedule: Q04DX002 (ip), vehicle: saline
[3] = dose: 100.0 mg/kg/injection, schedule: Q01DX009 (ip), vehicle: Klucel (hydroxypropylcellulose) (HPC)
[4] = dose: 100.0 mg/kg/injection, schedule: Q04DX003 (ip), vehicle: Klucel (hydroxypropylcellulose) (HPC)
[5] = dose: 200.0 mg/kg/injection, schedule: Q01DX009 (ip), vehicle: Klucel (hydroxypropylcellulose) (HPC)
[6] = dose: 200.0 mg/kg/injection, schedule: Q04DX003 (ip), vehicle: Klucel (hydroxypropylcellulose) (HPC)
[7] = dose: 400.0 mg/kg/injection, schedule: Q01DX009 (ip), vehicle: Klucel (hydroxypropylcellulose) (HPC)
[8] = dose: 400.0 mg/kg/injection, schedule: Q04DX003 (ip), vehicle: Klucel (hydroxypropylcellulose) (HPC)
[9] = dose: 100.0 mg/kg/injection, schedule: Q01DX009 (ip), vehicle: saline
[10] = dose: 200.0 mg/kg/injection, schedule: Q01DX009 (ip), vehicle: saline
[11] = dose: 400.0 mg/kg/injection, schedule: Q01DX009 (ip), vehicle: saline
[12] = dose: 100.0 mg/kg/injection, schedule: Q04DX002 (ip), vehicle: Klucel (hydroxypropylcellulose) (HPC)
[13] = dose: 200.0 mg/kg/injection, schedule: Q04DX002 (ip), vehicle: Klucel (hydroxypropylcellulose) (HPC)
[14] = dose: 400.0 mg/kg/injection, schedule: Q04DX002 (ip), vehicle: Klucel (hydroxypropylcellulose) (HPC)

Measured: T/C

CCOC(=O)c1ccc(NC(=O)N2CCCCC2C)cc1 (stereo not drawn)
inactive: dose: 100.0 mg/kg/injection, schedule: Q01DX001 (ip), vehicle: saline with Tween-80 93 % of control | dose: 100.0 mg/kg/injection, schedule: Q01DX009 (ip), vehicle: saline with Tween-80 104 % of control | dose: 100.0 mg/kg/injection, schedule: Q04DX002 (ip), vehicle: saline with Tween-80 97 % of control and 99 % of control | dose: 100.0 mg/kg/injection, schedule: Q04DX003 (ip), vehicle: saline with Tween-80 88 % of control | dose: 200.0 mg/kg/injection, schedule: Q01DX001 (ip), vehicle: saline with Tween-80 89 % of control | dose: 200.0 mg/kg/injection, schedule: Q01DX009 (ip), vehicle: saline with Tween-80 104 % of control | dose: 200.0 mg/kg/injection, schedule: Q04DX002 (ip), vehicle: saline with Tween-80 92 % of control and 100 % of control | dose: 200.0 mg/kg/injection, schedule: Q04DX003 (ip), vehicle: saline with Tween-80 96 % of control | dose: 400.0 mg/kg/injection, schedule: Q01DX001 (ip), vehicle: saline with Tween-80 91 % of control | dose: 400.0 mg/kg/injection, schedule: Q01DX009 (ip), vehicle: saline with Tween-80 97 % of control | dose: 400.0 mg/kg/injection, schedule: Q04DX002 (ip), vehicle: saline with Tween-80 94 % of control and 99 % of control | dose: 400.0 mg/kg/injection, schedule: Q04DX003 (ip), vehicle: saline with Tween-80 96 % of control

CCCC[n+]1ccccc1Cc1ccccc1
inactive: dose: 6.25 mg/kg/injection, schedule: Q04DX003 (ip), vehicle: saline 102 % of control | dose: 12.5 mg/kg/injection, schedule: Q04DX003 (ip), vehicle: saline 97 % of control

CON(C)CCO
inactive: dose: 25.0 mg/kg/injection, schedule: Q01DX001 (ip), vehicle: Klucel (hydroxypropylcellulose) (HPC) 107 % of control | dose: 50.0 mg/kg/injection, schedule: Q01DX001 (ip), vehicle: Klucel (hydroxypropylcellulose) (HPC) 107 % of control | dose: 100.0 mg/kg/injection, schedule: Q01DX001 (ip), vehicle: Klucel (hydroxypropylcellulose) (HPC) 105 % of control and 107 % of control | dose: 200.0 mg/kg/injection, schedule: Q01DX001 (ip), vehicle: Klucel (hydroxypropylcellulose) (HPC) 102 % of control

OCc1cnc[nH]1
inactive: dose: 3.0 mg/kg/injection, schedule: Q04DX002 (ip), vehicle: saline 123 % of control | dose: 6.0 mg/kg/injection, schedule: Q04DX002 (ip), vehicle: saline 97 % of control | dose: 12.0 mg/kg/injection, schedule: Q04DX002 (ip), vehicle: saline 94 % of control | [1] 97 % of control and 121 % of control | [2] 105 % of control

C=CCn1c(/N=C\N(C)C)cc(=O)[nH]c1=O
inactive: [3] 103 % of control | [4] 97 % of control | [5] 107 % of control | [6] 97 % of control | [7] 100 % of control | [8] 89 % of control

Cn1c(=O)c2c(nc(N/N=C/c3cccc4ccccc34)n2C)n(C)c1=O
inactive: dose: 44.0 mg/kg/injection, schedule: Q01DX Z (ip), vehicle: saline 90 % of control | dose: 66.0 mg/kg/injection, schedule: Q01DX Z (ip), vehicle: saline 94 % of control | dose: 100.0 mg/kg/injection, schedule: Q01DX Z (ip), vehicle: saline 92 % of control

O=NN(CCCN(N=O)C(=O)Nc1c[nH]c(=O)[nH]c1=O)C(=O)Nc1c[nH]c(=O)[nH]c1=O
inactive: dose: 50.0 mg/kg/injection, schedule: Q01DX Z (ip), vehicle: carboxymethylcellulose (CMC) 110 % of control | dose: 75.0 mg/kg/injection, schedule: Q01DX Z (ip), vehicle: carboxymethylcellulose (CMC) 110 % of control | dose: 100.0 mg/kg/injection, schedule: Q01DX Z (ip), vehicle: carboxymethylcellulose (CMC) 115 % of control | dose: 150.0 mg/kg/injection, schedule: Q01DX Z (ip), vehicle: carboxymethylcellulose (CMC) 111 % of control | dose: 200.0 mg/kg/injection, schedule: Q01DX Z (ip), vehicle: carboxymethylcellulose (CMC) 119 % of control

O=C1OCC/C1=C\CCCCCCCCC1CO1 (stereo not drawn)
inactive: [1] 94 % of control | [2] 102 % of control | dose: 100.0 mg/kg/injection, schedule: Q04DX002 (ip), vehicle: saline 94 % of control and 101 % of control

CC(C)=NNC(=O)C1CC=CC1C(Cl)Cl (stereo not drawn)
inactive: [3] 96 % of control | [5] 98 % of control | [7] 93 % of control

Nc1cccc2[nH]cnc12
inactive: [9] 98 % of control | dose: 100.0 mg/kg/injection, schedule: Q04DX003 (ip), vehicle: saline 106 % of control | [10] 111 % of control | dose: 200.0 mg/kg/injection, schedule: Q04DX003 (ip), vehicle: saline 104 % of control | [11] 93 % of control | dose: 400.0 mg/kg/injection, schedule: Q04DX003 (ip), vehicle: saline 101 % of control

COC(=O)Cc1cn[nH]c1C(=O)OC
inactive: [9] 97 % of control | [4] 93 % of control | [10] 94 % of control | [6] 97 % of control | [11] 95 % of control | [8] 97 % of control

CCC(=O)c1ccc(NC(=O)Nc2ccc(C(=O)CC)cc2)cc1
inactive: dose: 20.0 mg/kg/injection, schedule: Q01DX009 (ip), vehicle: saline 96 % of control | dose: 40.0 mg/kg/injection, schedule: Q01DX009 (ip), vehicle: saline 93 % of control | dose: 80.0 mg/kg/injection, schedule: Q01DX009 (ip), vehicle: saline 102 % of control | dose: 160.0 mg/kg/injection, schedule: Q01DX009 (ip), vehicle: saline 95 % of control | dose: 320.0 mg/kg/injection, schedule: Q01DX009 (ip), vehicle: saline 92 % of control

CC(=O)OCC1OC(n2cc(F)c(=O)[nH]c2=O)CC1OC(C)=O (stereo not drawn)
inactive: dose: 3.0 mg/kg/injection, schedule: Q01DX009 (ip), vehicle: saline 98 % of control | dose: 6.0 mg/kg/injection, schedule: Q01DX009 (ip), vehicle: saline 95 % of control | dose: 12.0 mg/kg/injection, schedule: Q01DX009 (ip), vehicle: saline 95 % of control | dose: 24.0 mg/kg/injection, schedule: Q01DX009 (ip), vehicle: saline 106 % of control | dose: 25.0 mg/kg/injection, schedule: Q01DX009 (ip), vehicle: saline 111 % of control | dose: 50.0 mg/kg/injection, schedule: Q01DX009 (ip), vehicle: saline 122 % of control | [10] 123 % of control

Oc1[nH]c2ccccc2c1N=NC(=S)Nc1ccccc1
inactive: dose: 75.0 mg/kg/injection, schedule: Q01DX001 (ip), vehicle: saline 91 % of control | dose: 150.0 mg/kg/injection, schedule: Q01DX001 (ip), vehicle: saline 87 % of control

CC(=O)c1ccc(Oc2ccccc2)cc1
inactive: [12] 104 % of control | [13] 93 % of control | [14] 110 % of control

O=P(c1cccc(C(F)(F)F)c1)(c1cccc(C(F)(F)F)c1)c1cccc(C(F)(F)F)c1.O=P(c1cccc(C(F)(F)F)c1)(c1cccc(C(F)(F)F)c1)c1cccc(C(F)(F)F)c1.[Cl][Sn]([Cl])([Cl])[Cl]
inactive: [12] 100 % of control | [13] 96 % of control | [14] 86 % of control

[CH3][Pb]([CH3])([CH3])[O]P(=O)(O)c1ccccc1
inactive: dose: 3.12 mg/kg/injection, schedule: Q04DX002 (ip), vehicle: saline 98 % of control | dose: 6.25 mg/kg/injection, schedule: Q04DX002 (ip), vehicle: saline 103 % of control | dose: 12.5 mg/kg/injection, schedule: Q04DX002 (ip), vehicle: saline 98 % of control and 101 % of control
